Experimental data published in US11998595B2, “Telomerase polypeptide vaccine for treating cancer” (Ultimovacs AS, priority 2010, dated 2024).
Entries after “also recorded” stand apart in the source; their conditions may differ.

Key:
T cells (patient PBMCs) = assay: T-cell proliferation assay (3H-thymidine) of patient PBMC/T cells with hTERT peptides or transfected DC; assay type: cell-based, human
Procedure: FIG. 1 is a bar graph summarising hTERT T-cell responses detected in pancreas cancer patient vaccinated with DC transfected with hTERT mRNA. In samples from various time points throughout a vaccination schedule, T-cell responses against 24 overlapping hTERT 15-mer peptides were detected. Proliferation in response to peptide-loaded PBMC was measured by ^3H-thymidine incorporation. A stimulation index of >2 is considered an immune response.
Peripheral blood mononuclear cells (PBMCs) were obtained prior to the four standard vaccinations, after 5 weeks and after 12 weeks. PBMCs were also obtained before each monthly booster vaccination. The PBMCs were isolated and frozen as previously described (Kyte et al, 2005). Thawed PBMCs were stimulated once in vitro with tDCs (not with mockDCs) and cultured and then tested in T cell proliferation assays (^3H Thymidine) as previously described (Kyte et al 2006). The T cells were tested in triplicates. Irradiated tDCs and mock-transfected DC controls (mockDCs) were used or PBMC with or without hTERT peptide as APCs. Negative controls with T cells only were included.
PBMCs from various time points were stimulated with an overlapping hTERT 15-mer peptide library or a 30-mer hTERT peptide, all from ProImmune and then tested in proliferation assays as above using irradiated PBMCs as APCs as described in (Bernhardt et al 2006).
T-cell responses to a hTERT peptide library (including the polypeptides from Table 1) were determined for T-cells from 5 patients in addition to the patients reported in Examples 1 and 2. The methods were the same as previously described in Example 1 or in Bernhardt et al 2006. In brief, PBMCs from various time points during vaccination were stimulated with the overlapping hTERT peptide library prior to testing for specific T-cell responses in proliferation assays.
The proliferative T-cell responses of each patient to a series of peptides were then determined as explained in Example 1. The results are tabulated in Table 5 and are shown graphically in FIG. 14 in which the peptide designations are referenced in Table 6 (the results for peptides 726 and GV1001 are shown only for comparison).
Four patients who were clinical non-responders following a lung cancer diagnosis and a GV1001 (SEQ ID NO. 10) peptide vaccination were studied. These patients were all stage IV lung cancer patients vaccinated with GV1001. […] The proliferative T-cell responses of each patient to a series of peptides were determined in the same manner as in Example 1, at one time point. The peak response of each patient during the study period to peptide GV1001 is also shown which confirms that each patient responded immunologically to GV1001 vaccination.
(§1) Six patients who were clinical non-responders following a melanoma cancer diagnosis and a GV1001 peptide (SEQ ID NO. 10) vaccination were studied. These patients were all stage IV melanoma patients and included in the same GV1001 vaccination trial as melanoma patients P7 and P8 who were long term survivors (see Example 6). […] Five of the patients also experienced progressive disease and one patient, designated Melanoma P3, experienced some stabilization of the disease but still had short survival. The proliferative T-cell responses of each patient to a series of peptides were determined in the same manner as in Example 1, at one time point. The peak response of each patient during the study period to peptide GV1001 is also shown which confirms that each patient responded immunologically to GV1001 vaccination.

[1] = test system: stage IV melanoma patients; assay: Clinical course of vaccinated melanoma patients; assay type: in vivo, human; set-up: key to Clinical response: PD = Progressive disease; SD = Stable disease; PR = Partial response; CR = Complete response
Procedure: A comparison of the patients studied in Example 4 was carried out. In brief, seven patients were identified as clinical responders following a cancer diagnosis and vaccination with an hTERT vaccine. These patients were identified based on a combination of prolonged survival and clinical response. The clinical response could either be stable disease (SD), partial response (PR) or complete response (CR). The vaccinated melanoma patients were diagnosed with stage IV at the time of inclusion in the clinical trial, but had no brain metastases. Lung cancer patient P5 was diagnosed with stage IV, inoperable lung cancer and colon cancer patient P1 with late stage inoperable colon cancer. Lung cancer patient P6 was a stage IV lung cancer patient with a 12-week life expectancy. Pancreas cancer patient P1 had relapsed, inoperable pancreas cancer and a life expectancy of 8-10 months. Four of the patients (designated Melanoma P7-P8, Lung cancer P5 and Colon cancer P1) had each been vaccinated with the peptide GV1001 (SEQ ID NO. 10). The fifth patient (designated Lung cancer P6) and the sixth patient (designated Pancreas cancer 1) had been vaccinated with dendritic cells transfected with mRNA encoding hTERT. The seventh patient, Melanoma patient P9, had not been vaccinated at the time of the study and instead developed a spontaneous response following development of the cancer. (An eighth and final patient was also identified as a clinical responder but samples from this patient were not available for study.)
as §1
The patients were classed as either clinical responders or clinical non-responders based on their clinical response which included stable disease (SD), tumour regression (PR or CR) and unexpectedly long survival time. Both clinical responders and clinical non-responders were selected from the same or similar vaccination trials.

EARPALLTSRLRFIPK (listed as Homo sapiens) [GV1001]
SI of response (T cells (patient PBMCs); all patients of Example 6): > 2 | immunological response of patients (T cells (patient PBMCs); all patients of Examples 1 to 8): All patients responded immunologically | proliferative T-cell response (SI) (T cells (patient PBMCs); patient Colon ca P1, GV1001-vaccinated, clinical responder): 105.1 | proliferative T-cell response (SI) (T cells (patient PBMCs); patient Lung ca P1, GV1001-vaccinated, clinical non-responder, one time point): 0.9 | Peak response GV1001 (T cells (patient PBMCs); patient Lung ca P1, peak during study period): 60.95 | proliferative T-cell response (SI) (T cells (patient PBMCs); patient Lung ca P2, GV1001-vaccinated, clinical non-responder, one time point): 122.8 | Peak response GV1001 (T cells (patient PBMCs); patient Lung ca P2, peak during study period): 122.8 | proliferative T-cell response (SI) (T cells (patient PBMCs); patient Lung ca P3, GV1001-vaccinated, clinical non-responder, one time point): 1.4 | Peak response GV1001 (T cells (patient PBMCs); patient Lung ca P3, peak during study period): 161.6 | proliferative T-cell response (SI) (T cells (patient PBMCs); patient Lung ca P4, GV1001-vaccinated, clinical non-responder, one time point): 1.2 | Peak response GV1001 (T cells (patient PBMCs); patient Lung ca P4, peak during study period): 13.3 | proliferative T-cell response (SI) (T cells (patient PBMCs); patient Lung ca P5, GV1001-vaccinated, clinical responder): 20.1 | proliferative T-cell response (SI) (T cells (patient PBMCs); patient Lung ca P6, DC/hTERT mRNA-vaccinated, clinical responder, high background): 7.1 | proliferative T-cell response (SI) (T cells (patient PBMCs); patient Melanoma P1, GV1001-vaccinated, clinical non-responder, one time point): 1.4 | Peak response GV1001 (T cells (patient PBMCs); patient Melanoma P1, peak during study period): 26.0 | proliferative T-cell response (SI) (T cells (patient PBMCs); patient Melanoma P2, GV1001-vaccinated, clinical non-responder, one time point): 0.9 | Peak response GV1001 (T cells (patient PBMCs); patient Melanoma P2, peak during study period): 38.7 | proliferative T-cell response (SI) (T cells (patient PBMCs); patient Melanoma P3, GV1001-vaccinated, clinical non-responder, one time point): 1.8 | Peak response GV1001 (T cells (patient PBMCs); patient Melanoma P3, peak during study period): 3.7 | proliferative T-cell response (SI) (T cells (patient PBMCs); patient Melanoma P4, GV1001-vaccinated, clinical non-responder, one time point): 1.2 | Peak response GV1001 (T cells (patient PBMCs); patient Melanoma P4, peak during study period): 10.7 | proliferative T-cell response (SI) (T cells (patient PBMCs); patient Melanoma P5, GV1001-vaccinated, clinical non-responder, one time point): 25.2 | Peak response GV1001 (T cells (patient PBMCs); patient Melanoma P5, peak during study period): 35.4 | proliferative T-cell response (SI) (T cells (patient PBMCs); patient Melanoma P6, GV1001-vaccinated, clinical non-responder, one time point): 21.4 | Peak response GV1001 (T cells (patient PBMCs); patient Melanoma P6, peak during study period): 122.0 | proliferative T-cell response (SI) (T cells (patient PBMCs); patient Melanoma P7, GV1001-vaccinated, clinical responder): 76.5 | proliferative T-cell response (SI) (T cells (patient PBMCs); patient Melanoma P8, GV1001-vaccinated, clinical responder): 13.2 | proliferative T-cell response (SI) (T cells (patient PBMCs); patient Melanoma P9, non-vaccinated, spontaneous response): 1.7 | proliferative T-cell response (SI) (T cells (patient PBMCs); patient Pancreas ca P1, DC/hTERT mRNA-vaccinated, clinical responder, high background): 2.2 | Clinical Responder ([1]; patient Melanoma P1): No | Clinical response ([1]; patient Melanoma P1): PD | Survival (Months) ([1]; patient Melanoma P1): 10 Months | Vaccine-specific T cell response at time-point tested ([1]; patient Melanoma P1): Yes | Clinical Responder ([1]; patient Melanoma P2): No | Clinical response ([1]; patient Melanoma P2): PD | Survival (Months) ([1]; patient Melanoma P2): 9 Months | Vaccine-specific T cell response at time-point tested ([1]; patient Melanoma P2): Yes | Clinical Responder ([1]; patient Melanoma P3): No | Clinical response ([1]; patient Melanoma P3): SD | Survival (Months) ([1]; patient Melanoma P3): 10 Months | Vaccine-specific T cell response at time-point tested ([1]; patient Melanoma P3): Yes | Clinical Responder ([1]; patient Melanoma P4): No | Clinical response ([1]; patient Melanoma P4): PD | Survival (Months) ([1]; patient Melanoma P4): 8 Months | Vaccine-specific T cell response at time-point tested ([1]; patient Melanoma P4): Yes | Clinical Responder ([1]; patient Melanoma P5): No | Clinical response ([1]; patient Melanoma P5): PD | Survival (Months) ([1]; patient Melanoma P5): 12 Months | Vaccine-specific T cell response at time-point tested ([1]; patient Melanoma P5): Yes | Clinical Responder ([1]; patient Melanoma P6): No | Clinical response ([1]; patient Melanoma P6): PD | Survival (Months) ([1]; patient Melanoma P6): 8 Months | Vaccine-specific T cell response at time-point tested ([1]; patient Melanoma P6): Yes | Clinical Responder ([1]; patient Melanoma P7): Yes | Clinical response ([1]; patient Melanoma P7): alive, PR | Vaccine-specific T cell response at time-point tested ([1]; patient Melanoma P7): Yes | Survival (Months) ([1]; patient Melanoma P7, + signifies that the patient is still alive): 65+ Months | Clinical Responder ([1]; patient Melanoma P8): Yes | Survival (Months) ([1]; patient Melanoma P8): 21 Months | Vaccine-specific T cell response at time-point tested ([1]; patient Melanoma P8): Yes | Clinical response ([1]; patient Melanoma P8, TTP = time to progression): increased; also recorded: TTP, PR
